Common to all, as to type: binding
The target of assay [1] is T1, RVFV nucleocapsid N protein (Rift valley fever virus, UniProt P21700).
The target of assay [2] is T1, RVFV nucleocapsid N protein. As to the kind of experiment: biochemical.
Assay [3] has the same target. As to the kind of experiment: biochemical. This is another data set of the same source.

Counter-ions that a name gives are not always drawn. Like-named read-outs stand apart in the source and are kept apart here.

T1 sequence (P21700 whole entry, looked up): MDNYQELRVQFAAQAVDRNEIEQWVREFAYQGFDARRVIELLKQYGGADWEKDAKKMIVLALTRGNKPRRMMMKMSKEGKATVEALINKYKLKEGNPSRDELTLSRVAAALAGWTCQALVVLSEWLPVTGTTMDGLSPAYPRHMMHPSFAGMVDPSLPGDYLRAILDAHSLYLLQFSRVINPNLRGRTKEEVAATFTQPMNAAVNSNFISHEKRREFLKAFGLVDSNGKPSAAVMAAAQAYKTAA

The IC50 is the concentration that gives 50% inhibition. As for `Br.CN=c1nc(-c2ccccc2)n(-c2ccccc2)s1` [S 4063], in assay [1], the “Percent Inhibition HTS” value amounted to 50.3%. Further, in assay [2], the “Avg. Hill slope” value was −1.64 and the 50% inhibitory concentration (IC50) was 6.7 ± 2.9 µM.

In the case of `Cc1ccc(C(=O)Nc2ccc(S(=O)(=O)O)c3cc(S(=O)(=O)O)cc(S(=O)(=O)O)c23)cc1NC(=O)c1cccc(NC(=O)Nc2cccc(C(=O)Nc3cc(C(=O)Nc4ccc(S(=O)(=O)O)c5cc(S(=O)(=O)O)cc(S(=O)(=O)O)c45)ccc3C)c2)c1` [suramin sodium salt], in assay [1], the “Percent Inhibition HTS” value is 93.3%. Also, in assay [2], the “Avg. Hill slope” value is reported as −2.76 and the IC50 was found to be 16.3 ± 7.3 µM.

Take `CC[C@@]1(O)C(=O)OCc2c1cc1n(c2=O)Cc2cc3c(CN(C)C)c(O)ccc3nc2-1` [topotecan]: the “Percent Inhibition HTS” value in assay [1] amounted to 85.9%.

As for `CCN(CC)CCCC(C)Nc1c2ccc(Cl)cc2nc2ccc(OC)cc12` (stereo not shown) [quinacrine dihydrochloride], the “Percent Inhibition HTS” value in assay [1] is recorded as 65.7%. Moreover, in assay [3], the “Avg. Hill slope” value is on record as −2.99 and the IC50 is 162 ± 26 µM.

For the origin of these results see PMC3520603 (Journal of biomolecular screening, 2012).
